Experimental data taken from ChEMBL document CHEMBL4619784, “Exploiting Existing Molecular Scaffolds for Long-Term COVID Treatment” (ACS Med Chem Lett, 2020).
pEC50: −log10 of the molar value.

Test system: SARS-CoV
Assay: Antiviral activity against SARS coronavirus Urbani infected in monkey Vero E6 cells assessed as reduction in virus-induced cytopathogenicity incubated for 48 hrs by CellTiter-Glo luminescent cell viability assay
Assay type: functional, organism-based
Settings: Severe acute respiratory syndrome-related coronavirus, Vero C1008, 48 h

Question: How did the pEC50 turn out when `Cc1ccc(N)cc1C(=O)N[C@H](C)c1cccc2ccccc12` was run?
Answer: 5.00
